How the values were obtained:
[1] = Body weight of DU145 tumor nude mice; settings: for Decrease in body weight: Day 28 vs Day 0;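 as to all read-outs here: dosing started once xenografts reached 150-200 mm^3, with mice randomized into three groups, loss of body weight served as an indirect sign of drug toxicity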
Experimental: (§8) DU145 (the 3rd generation) tumors in the rapid proliferation stage inoculated in the axilla of nude mice were cut into tumor lumps with a size of 1 mm*1 mm*1 mm and then were inoculated subcutaneously to the right limb of nude mice using a trocar under a sterile condition. When the tumors grow to 150-200 mm^3, the mice were randomly divided into three groups and then administrated with the compounds for 4 weeks. The major diameter (a) and the minor diameter (b) of the tumors were measured 2 or 3 times a week. The tumor volume (TV) was calculated with the following equation: TV=½×a×b^2. Tumors were stripped and weighted at Day 28 and the tumor inhibition rate was calculated using the following equation: (tumor weight of control−tumor weight of experimental group)/tumor weight of control×100%.
(§9) The nude mice were divided into 3 groups with 4 mice per group when the tumors averagely grew to about 185-200 mm^3, depending on the growth regularity of the tumor and the dosage regimen.
G1: positive drug group: Everolimus (5 mg/kg, qw, 4 w, 3×/w); administration route: intragastrical administration;

lung cancer cell NCI460 = test: In vitro activity assay, growth of NCI460; assay type: cell-based; settings: NCI-460, 48 h
Source text: (§1) The anti-tumor activity and toxicity of the compounds according to the present invention can be assayed through standard operational procedures of pharmacological experiment. The experiments carried out herein can test the inhibitory effect of the compounds according to the present invention on the growth of human liver cancer cell HepG2, lung cancer cell NCI460, prostate cancer cell DU145, prostate cancer cell PC3, and human breast cancer cell MDA-MB-435. The operational procedure used is briefly described below by taking the inhibitory activity assay against human liver cancer cell HepG2 as an example.
(§2) The operational procedure for the assay is as follows:
(§3) 1. Cells after being trypsinized were inoculated in 96-well plates at a concentration of 10^4 cells/well, and allowed to grow in a medium with a final volume of 200 μL. The 96-well plates after inoculation are allowed to stand for 24 hours at 37° C., in order to allow the cells to adhere to the surface of the wells.
(§4) 2. The medium was removed by carefully pipetting without disturbing the cell monolayer. 200 μL Fresh medium was added into each well. It is arranged to make it possible to collect samples from enough wells to run the experiments in triplicate.
(§5) 3. The compounds to be tested according to the present invention were dissolved into 10 μL phosphate buffered solution (PBS) and incubated for 48 h at 37° C.
(§6) 4. In the last 6 h of incubation, cells in each well of the 96-well plates were labeled by 1 microcurie T thymidine (New England Nuclear thymidine), by adding 10 μL PBS containing 1 microcurie T thymidine (which was added into the PBS on the day of collecting the samples for test). The 96-well plates were then returned to the incubator and incubated for the last 6 h.
(§7) 5. Without disturbing the cell monolayer, the radioactive medium was removed by pipetting. Then 50 μL of BRL 10×trypsin was added to each well, followed by incubation at 37° C. for 10 minutes or until the cell monolayer was detached from the bottom (or the wall) of each well. Samples were collected on glass-fiber diskettes using a Skatron 96-well cell harvester. Cells depositing on the glass-fiber diskettes were counted in a Wallac Betaplate counter.

[2] = Body weight of NCI-H460 tumor nude mice; settings: for Body Weights, mean value / Decrease rate (body weight) / Decrease in body weight: everolimus 5 mg/kg, compound I-1 6.8 mg/kg, qw 4×;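 as to all read-outs here: Tumor-bearing mice dosed for 4 weeks once tumors reached 150–200 mm^3, with a vehicle control group, and body weight loss taken as an indirect sign of drug toxicity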
Experimental: NCI-H460 (the 3rd generation) tumors in the rapid proliferation stage inoculated in the axilla of nude mice were cut into tumor lumps with a size of 1 mm*1 mm*1 mm and then were inoculated subcutaneously to the right limb of nude mice using a trocar under a sterile condition. When the tumors grew to 150˜200 mm^3, the mice were divided into groups and then administrated with the compounds for 4 weeks. The major diameter (a) and the minor diameter (b) of the tumors were measured two or three times a week. The tumor volume (TV) and the relative tumor proliferation rate (T/C) were calculated. The equation for calculating the tumor volume is: TV=½×a×b^2. The equation for calculating the relative tumor proliferation rate is T/C=TRTC/CRTV (TRTC: average relative tumor volume in the treatment group; CRTV: average relative tumor volume in the vehicle control group). Tumors were stripped and weighted at Day 28 and the tumor-inhibition rate was calculated with the following equation: (tumor weight of control−tumor weight of experimental group)/tumor weight of control×100%.
Grouping method: the mice were divided into 3 groups with 6 mice per group when the tumors averagely grew to about 195 mm^3, depending on the growth regularity of the tumor and the dosage regimen. Administration route: intragastrical administration.
G1: Control (vehicle, qw 4×, iv)
G2: Positive drug group: Everolimus (5 mg/kg, qw 4×, iv)

[3] = tested on: human renal cell carcinoma OS-RC-2; test: In vivo inhibitory activity against human renal cell carcinoma OS-RC-2 in nude mice; settings: for Tumor Weight ± SD: end of experiment
Experimental: The tumor inhibition rate was calculated.

DU145 = test: In vivo tumor inhibitory efficacy against DU145 tumor in nude mice, intragastrical vs injection; settings: for Mean Volume of Tumor: 3×/w, 4 w; for tumor inhibitory effect compared with intragastrical everolimus 5 mg/kg: compound I-1 tail vein injection, end of the test
Experimental: as §8, §9

prostate cancer cell PC3 = test: In vitro activity assay, growth of PC3; assay type: cell-based; settings: 48 h
Source text: as §1, §2, §3, §4, §5, §6, §7

[4] = G4 compound I-1 8.12 mg/kg ig 3×/qw
[5] = G5 compound I-1 2.0 mg/kg iv 3×/qw
[6] = G6 compound I-1 8.12 mg/kg iv 3×/qw
[7] = G7 compound I-1 32.7 mg/kg iv 1×/qw

CO[C@H]1C[C@@H]2CC[C@@H](C)[C@@](O)(O2)C(=O)C(=O)N2CCCC[C@H]2C(=O)OC([C@H](C)C[C@@H]2CC[C@@H](OCCOC(=O)CSC[C@H](NC(=O)CC[C@H](N)C(=O)O)C(=O)NCC(=O)O)[C@H](OC)C2)CC(=O)[C@H](C)/C=C(\C)[C@@H](O)[C@@H](OC)C(=O)[C@H](C)C[C@@H](C)\C=C/C=C/C=C/1C (stereo partly shown) [Compound I-1]
Decrease rate (body weight) ([1]; Day 28, G3 compound I-1 1.7 mg/kg tail vein injection, 3×/w, 4 w): −5.26%
Decrease in body weight ([1]; G2 compound I-1 3.4 mg/kg tail vein injection, 3×/w, 4 w): -1.66 g
Decrease in body weight ([1]; G3 compound I-1 1.7 mg/kg tail vein injection, 3×/w, 4 w): -1.41 g
toxic and side effect ([1]; injection administration of compound I-1 (3.4 and 1.7 mg/kg), judged from body weight): does not result in obvious toxic and side effect
IC50 (lung cancer cell NCI460): 27.204 ± 0.007 µM
Body Weights, mean value ([2]; Day 0): 26.20 g
Body Weights, mean value ([2]; Day 3): 25.49 g
Decrease rate (body weight) ([2]; Day 3): 2.73%
Decrease in body weight ([2]; Day 3 vs Day 0): 0.72 g
Body Weights, mean value ([2]; Day 7): 26.79 g
Decrease rate (body weight) ([2]; Day 7): −2.23%
Decrease in body weight ([2]; Day 7 vs Day 0): -0.58 g
Body Weights, mean value ([2]; Day 10): 26.20 g
Decrease rate (body weight) ([2]; Day 10): 0.00%
Decrease in body weight ([2]; Day 10 vs Day 0): 0.00 g
Body Weights, mean value ([2]; Day 14): 27.74 g
Decrease rate (body weight) ([2]; Day 14): −5.87%
Decrease in body weight ([2]; Day 14 vs Day 0): -1.54 g
Body Weights, mean value ([2]; Day 17): 27.84 g
Decrease rate (body weight) ([2]; Day 17): −6.24%
Decrease in body weight ([2]; Day 17 vs Day 0): -1.64 g
Body Weights, mean value ([2]; Day 21): 28.42 g
Decrease rate (body weight) ([2]; Day 21): −8.46%
Decrease in body weight ([2]; Day 21 vs Day 0): -2.22 g
Body Weights, mean value ([2]; Day 24): 28.09 g
Decrease rate (body weight) ([2]; Day 24): −7.20%
Decrease in body weight ([2]; Day 24 vs Day 0): -1.89 g
Body Weights, mean value ([2]; Day 28): 29.00 g
Decrease rate (body weight) ([2]; Day 28): −10.68%
Decrease in body weight ([2]; Day 28 vs Day 0): -2.80 g
toxic and side effect in vivo ([2]; judged from body weight, compound I-1 6.8 mg/kg vs everolimus 5 mg/kg): significantly lower than that of everolimus
Tumor Inhibition Rate [3, 4]: 55.6%
Tumor Inhibition Rate [3, 5]: 57.1%
Tumor Inhibition Rate [3, 6]: 59.9%
Tumor Inhibition Rate [3, 7]: 60.6%
tumor inhibitory effect (FIG. 7) ([3]; compound I-1 injection, 2.0 mg/Kg 3 times a week or 32.7 mg/Kg once a week): a good tumor inhibitory effect
Tumor Weight ± SD [3, 4]: 0.3002 ± 0.1108 g
Tumor Weight ± SD [3, 5]: 0.2905 ± 0.0936 g
Tumor Weight ± SD [3, 6]: 0.2710 ± 0.1695 g
Tumor Weight ± SD [3, 7]: 0.2669 ± 0.1023 g
Mean Volume of Tumor (DU145; Day 0, G2 compound I-1 3.4 mg/kg tail vein injection): 189.84 mm^3
Mean Volume of Tumor (DU145; Day 0, G3 compound I-1 1.7 mg/kg tail vein injection): 187.29 mm^3
Mean Volume of Tumor (DU145; Day 3, G2 compound I-1 3.4 mg/kg tail vein injection): 203.79 mm^3
Mean Volume of Tumor (DU145; Day 3, G3 compound I-1 1.7 mg/kg tail vein injection): 235.34 mm^3
Mean Volume of Tumor (DU145; Day 7, G2 compound I-1 3.4 mg/kg tail vein injection): 223.91 mm^3
Mean Volume of Tumor (DU145; Day 7, G3 compound I-1 1.7 mg/kg tail vein injection): 250.90 mm^3
Mean Volume of Tumor (DU145; Day 10, G2 compound I-1 3.4 mg/kg tail vein injection): 245.45 mm^3
Mean Volume of Tumor (DU145; Day 10, G3 compound I-1 1.7 mg/kg tail vein injection): 269.25 mm^3
Mean Volume of Tumor (DU145; Day 14, G2 compound I-1 3.4 mg/kg tail vein injection): 255.59 mm^3
Mean Volume of Tumor (DU145; Day 14, G3 compound I-1 1.7 mg/kg tail vein injection): 281.22 mm^3
Mean Volume of Tumor (DU145; Day 17, G2 compound I-1 3.4 mg/kg tail vein injection): 261.55 mm^3
Mean Volume of Tumor (DU145; Day 17, G3 compound I-1 1.7 mg/kg tail vein injection): 280.18 mm^3
Mean Volume of Tumor (DU145; Day 21, G2 compound I-1 3.4 mg/kg tail vein injection): 257.96 mm^3
Mean Volume of Tumor (DU145; Day 21, G3 compound I-1 1.7 mg/kg tail vein injection): 300.52 mm^3
Mean Volume of Tumor (DU145; Day 24, G2 compound I-1 3.4 mg/kg tail vein injection): 241.11 mm^3
Mean Volume of Tumor (DU145; Day 24, G3 compound I-1 1.7 mg/kg tail vein injection): 288.39 mm^3
Mean Volume of Tumor (DU145; Day 28, G2 compound I-1 3.4 mg/kg tail vein injection): 267.54 mm^3
Mean Volume of Tumor (DU145; Day 28, G3 compound I-1 1.7 mg/kg tail vein injection): 323.75 mm^3
tumor inhibitory effect compared with intragastrical everolimus 5 mg/kg (DU145; dosage equivalent to a quarter of that of everolimus (1.7 mg/kg)): substantially the same tumor inhibitory effect as that of intragastrical administration of everolimus
tumor inhibitory effect compared with intragastrical everolimus 5 mg/kg (DU145; dosage equivalent to half of that of everolimus (3.4 mg/kg)): significantly superior to that of intragastric administration of everolimus
IC50 (prostate cancer cell PC3): 25.978 ± 0.008 µM

Source: patent US10442835B2, “Water-soluble rapamycin derivatives” (Zhejiang Hisun Pharmaceutical Co., Ltd., priority 2016, dated 2019)
